test system: Gryllus bimaculatus; assay: Induction of paralysis in Gryllus bimaculatus assessed as drug level causing paralysis per gram of cricket after 5 mins; assay type: functional

First: NCCCC[C@H](N)C(=O)NCCCNCCCNCCCCNC(=O)[C@H](CC(N)=O)NC(=O)Cc1cc(=O)oc2cc(O)ccc12
Second: NCCCCNCC(=O)NCCCNCCCNCCCCNC(=O)[C@H](CC(N)=O)NC(=O)Cc1cc(=O)oc2cc(O)ccc12
The ED50 of the first is higher: 1.05 nmol for the first, 0.136 nmol for the second.

Compared with `NCCCC[C@H](N)C(=O)NCCCNCCCNCCCCNC(=O)[C@H](CC(N)=O)NC(=O)c1cc2ccc(O)cc2oc1=O`, `NCCCCNCC(=O)NCCCNCCCNCCCCNC(=O)[C@H](CC(N)=O)NC(=O)c1cc2ccc(O)cc2oc1=O` is higher in ED50: 2.59 nmol for the first, 5.69 nmol for the second.

With `NCCCC[C@H](N)C(=O)NCCCNCCCNCCCCNC(=O)[C@H](CC(N)=O)NC(=O)Cc1ccc(O)cc1O` the ED50 was 0.175 nmol.
